The subject of data set [1] is B. burgdorferi (growing, strain B31). Nature of the data set: MIC determination, standard microdilution method. The format is cell-based, Borrelia burgdorferi. The settings on record: Borreliella burgdorferi; growing B. burgdorferi; read-out: MIC.
Data set [2] concerns stationary phase B. burgdorferi persisters (strain B31). Nature of the data set: NCI compound library screen, SYBR Green I/PI assay (plate reader).
Data set [3] deals with stationary phase B. burgdorferi. Description: Subculture test of drug-treated stationary phase B. burgdorferi. The settings on record: 10 μg/mL. It counts as cell-based, Borrelia burgdorferi. On the procedure: Seven-day-old B. burgdorferi culture (1×10^7 spirochetes/mL) (500 μL) was treated with drugs or drug combinations in Eppendorf tubes. After incubation at 33° C. for 7 days without shaking, the cells were collected by centrifugation and rinsed with 1 mL fresh BSK-H medium followed by resuspension in 500 μL fresh BSK-H medium without antibiotics. Then 50 μL of cell suspension was transferred to 1 mL fresh BSK-H medium for subculture at 33° C. for 2 weeks. Cell proliferation was assessed using SYBR Green I/PI assay and bacterial counting chamber (Hausser Scientific Partnership) by microscopy as described above.

The test system of data set [4] is stationary phase B. burgdorferi persisters (strain B31). Nature of the data set: NCI compound library rescreen, epifluorescence microscope counting. The settings on record: Borreliella burgdorferi, 168 h.
Where [5] appears, read: 7 days treatment, then subculture.

A word on the MIC: it is the lowest concentration found to suppress growth.

In the case of `C[C@H]1c2cccc(O)c2C(=O)C2=C(O)[C@]3(O)C(=O)C(C(N)=O)=C(O)[C@@H](N(C)C)[C@@H]3[C@@H](O)[C@@H]21` [Doxycycline], the minimal inhibitory concentration (MIC) in data set [1] was at most 0.25 µg/mL. For the same molecule, the “Residual viable cells (SYBR Green I/PI assay)” value in data set [2] (50 μM, seven day old stationary phase culture, 7 days) was determined as 68%. Besides, the viability at 20 µM in data set [2] (Borreliella burgdorferi, 168 h, read-out: Residual viable cells (%) 20 μM (SYBR Green I/PI assay), 20 μM, seven day old stationary phase, 7 days) amounted to 76%; in data set [4] (read-out: Residual viable cells (%) 20 μM (epifluorescence microscope counting)), 77%. Also, the viability at 50 µM in data set [2] (Borreliella burgdorferi, 168 h, read-out: Residual viable cells (SYBR Green I/PI assay), 50 μM, seven day old stationary phase culture, 7 days) amounted to 75%; in data set [4] (read-out: Activity against persisters (residual viable cell percentage)), 77%; in data set [4] (read-out: Residual viable cells (%) 50 μM (epifluorescence microscope counting)) it was 77%; in data set [4] (read-out: Residual viable cells (epifluorescence microscope counting)), 77%. For the same molecule, the “G/R ratio immediately after treatment” value in data set [3] (7 days) amounted to 6.71. The “G/R ratio after 7 day subculture” value in data set [3] (setting [5]) was 6.23. For the same molecule, the “G/R ratio after 15 day subculture” value in data set [3] (setting [5]) is reported as 6.89. Besides, the “Spirochetes after 7 day subculture (microscope counting)” value in data set [3] (setting [5]) is listed as 9 × 10^5. In addition, the “Spirochetes after 15 day subculture (microscope counting)” value in data set [3] (setting [5]) was ~5×10^6; in data set [3] (7 days treatment, then subculture, listed as Dox), 4 × 10^6. In addition, the viability at 10 µg/mL in data set [3] (Borreliella burgdorferi, 168 h, seven-day-old culture, 7 days, read-out: Residual viable cells (epifluorescence microscope counting)) is 67%.

The values are drawn from US20170058314A1, “NOVEL METHODOLOGY FOR IDENTIFYING ANTI-PERSISTER ACTIVITY AND ANTIMICROBIAL SUSCEPTIBILITY FOR BORRELIA BURGDORFERI AND OTHER BACTERIA” (priority 2014, published 2017).
